Source: ChEMBL document CHEMBL5226287, “Small organic molecules targeting the energy metabolism of Mycobacterium tuberculosis” (Eur J Med Chem, 2021)
Values after ≈ are worked out from the molar mass of the structure shown. Starred links: 1 amine or outer side, 2 acyl side, 3 side chain; linkers in the order of their positions; H or OH if unused. Non-standard residues stand in square brackets, D forms with d. Residues, ends and D or L forms follow the SMILES beside them. ξ: configuration not given here. *: point of attachment. X1 = CCC(=O)C[C@@H](O)C[C@@H](C)C[C@H](N[*:1])C(=O)[*:2]; Alaψ(CH2NMeCH2CH2OH) = C[C@@H](CN(C)CCO)N*; Decanoyl(2R-Me) = CCCCCCCC[C@@H](C)C(=O)*; Ile(3ξ) = CCC(C)[C@H](N)C(=O)O; ξβ3hP = O=C(O)CC1CCCN1; Aib = CC(C)(N)C(=O)O

Assays:
Type in all cases: functional
[1] = test system: Mycobacterium tuberculosis; assay: Antimycobacterial activity against Mycobacterium tuberculosis QcrBT mutant assessed as reduction in bacterial growth
[2] = test system: Mycobacterium tuberculosis; assay: Antibacterial activity against isoniazid-resistant Mycobacterium tuberculosis H37Rv assessed as bacterial growth inhibition by microdilution method
[3] = test system: Mycobacterium tuberculosis; assay: Antibacterial activity against rifampicin-resistant Mycobacterium tuberculosis H37Rv assessed as bacterial growth inhibition by microdilution method
[4] = test system: Mycobacterium tuberculosis; assay: Antibacterial activity against Mycobacterium tuberculosis H37Rv overexpressed in ATP synthase
[5] = test system: Mycobacterium tuberculosis; assay: Antibacterial activity against Mycobacterium tuberculosis H37Rv resistant isoniazid by CLSI broth microdilution method; conditions: route inh
[6] = test system: Mycobacterium tuberculosis; assay: Antibacterial activity against Mycobacterium tuberculosis H37Rv resistant rifampicin by CLSI broth microdilution method
[7] = test system: Mycobacterium tuberculosis; assay: Antibacterial activity against drug resistant Mycobacterium tuberculosis H37Rv in the presence of ATP synthase

**Q.** With `Cc1ccn2c(C(=O)NCc3ccccc3)c(C)nc2c1` as the compound, how does the MIC90 [1] read?
**A.** The MIC90 was 6.5 µM (≈ 1.82 µg/mL).

**Q.** What does the source list for `Cc1cn2c(C(=O)NCc3ccc(C(F)(F)F)cc3)c(C)nc2s1`?
**A.** MIC [2]: < 0.04 µM; MIC [3]: < 0.04 µM

**Q.** How did the MIC [4] turn out when `CCCCCCCC[C@@H](C)C(=O)N1CCCC1CC(=O)N[C@@H](C[C@H](C)C[C@H](O)CC(=O)CC)C(=O)NC(C)(C)C(=O)NC(C)(C)C(=O)N[C@H](C(=O)N[C@H](C(=O)NC(C)(C)C(=O)NC(C)(C)C(=O)N[C@@H](C)CN(C)CCO)C(C)C)C(C)CC` (stereo partly drawn) ({Decanoyl(2R-Me)}-[ξβ3hP][X1][Aib][Aib][Ile(3ξ)]V[Aib][Aib]-{Alaψ(CH2NMeCH2CH2OH)}) was run?
**A.** The MIC was 0.12 µg/mL (≈ 0.102 µM).

**Q.** With `Cc1cn2c(C(=O)NCc3ccc(N4CCN(c5ccc(C(F)(F)F)cn5)CC4)c(F)c3)c(C)nc2s1` as the compound, how does the MIC [2] read?
**A.** Its MIC is under 0.506 µM.

**Q.** And the MIC [3]?
**A.** The MIC was under 0.201 µM.

**Q.** `Cc1ccn2c(C(=O)NCc3cccc(OC(C)C)c3)c(C)nc2c1` was tested. Which MIC90 [1] did it give?
**A.** The MIC90 was over 20 µM.

**Q.** What does the source list for `CCCc1cc(OCC(=O)Nc2ccccc2OC)c2cc(OC)ccc2n1`?
**A.** MIC [5]: 0.01 µg/mL (≈ 0.0263 µM); MIC [6]: 0.01 µg/mL (≈ 0.0263 µM)

**Q.** `CN(C)CCN1CCN(c2ccc(-c3cc4cc(Br)ccc4nc3OCc3ccc4ccccc4c3)cc2)CC1` was tested. Which MIC [7] did it give?
**A.** Its MIC is 0.94 µg/mL.

**Q.** `CN(C)Cc1ccc(-c2cc3cc(Br)ccc3nc2OCc2ccncc2)cc1` was tested. Which MIC [7] did it give?
**A.** Its MIC is 0.48 µg/mL.
